# Experiments:
# Experiment in all cases: Post-emergence efficacy, Method C
# Format in all cases: in vivo
# Conditions in all cases: Application Rate 400 g/Ha, evaluated at 21 days
# [1] = tested on: Conyza canadensis (ERICA)
# Method: (§1) An “instant formulation”, known as the IF50, containing 50 g/L of the “technical” (i.e. unformulated) active ingredient was prepared by dissolving the active ingredient in a mixture of organic solvents and emulsifier, details of which are provided in the table. This IF50 was then mixed with a small, variable amount of acetone to aid dissolution, before addition of a 1% v/v aqueous solution of the adjuvant Empicol ESC70 3EO (Sodium lauryl ether sulphate) and 1% v/v Ammonium sulphate, as the aqueous diluent, to form an aqueous spray solution which contains a predetermined concentration of the active ingredient (which varies depending on the application rate of the active ingredient to the plants).
# (§2) Composition of the mixture of organic solvents and emulsifier used as a base for the instant formulation.
# (§3) This aqueous spray solution was then sprayed onto the plants after about 21 days' cultivation. The plants were grown from seeds sown in standard soil, placed in a glasshouse under controlled conditions (at 24/18° C., day/night; 14 hours light; 65% humidity). After spray application the plants were then grown on in a glasshouse under the same conditions and watered twice daily. The test was evaluated at 21 days (100=total damage to plant; 0=no damage to plant).
# (§4) Ipomoea hederacea (IPOHE), Amaranthus palmeri (AMAPA), Lolium perenne (LOLPE), Eleusine indica (ELEIN), Echinochloa crus-galli (ECHCG), Conyza canadensis (ERICA)
# [2] = tested on: Amaranthus palmeri (AMAPA)
# Method: as §1, §2, §3, §4
# Lolium perenne (LOLPE) = tested on: Lolium perenne (LOLPE)
# Method: as §1, §2, §3, §4
# [3] = tested on: Echinochloa crus-galli (ECHCG)
# Method: as §1, §2, §3, §4
# [4] = tested on: Ipomoea hederacea (IPOHE)
# Method: as §1, §2, §3, §4
structure (smiles),measurement,setting,value
Cl.O=S(=O)([O-])CC[n+]1ccc(-c2ccncc2)cn1 [Compound A27],"Control of weed species after post-emergence application, ERICA (100=total damage to plant; 0=no damage to plant)",[1],65
same,"Control of weed species after post-emergence application, AMAPA (100=total damage to plant; 0=no damage to plant)",[2],77
same,"Control of weed species after post-emergence application, LOLPE (100=total damage to plant; 0=no damage to plant)",Lolium perenne (LOLPE),68
same,"Control of weed species after post-emergence application, ECHCG (100=total damage to plant; 0=no damage to plant)",[3],43
same,"Control of weed species after post-emergence application, IPOHE (100=total damage to plant; 0=no damage to plant)",[4],90

# Source: patent US11618743B2, “Herbicidal compounds” (SYNGENTA PARTICIPATIONS AG, priority 2017, dated 2023)
